From US20190358220A1, “INTEGRATOR INHIBITORS AND METHODS FOR THEIR USE” (UNIVERSITY OF MIAMI, priority 2017, published 2019)

Tests used:
[1] = system: Integrator and RNAPII recruitment to EGF-responsive IEGs; test: ChIP-seq of INTS11 and RNAPII recruitment after EGF stimulation; type: cell-based, human
Protocol: Diagrams of EGR1, FOSB and NR4A1 genomic regions are indicated at the bottom. FIGS. 5B and 5C show the average profiles of INTS11 (top) and RNAPII (bottom) recruitment at 106 EGF-induced genes (FIG. 5B) and 106 control genes (FIG. 5C). ChIP-seq was performed before and after 20 minutes of EGF-induction, with or without the presence of ERK inhibitor. The average analysis was performed using two independent biological replicates.
ChIP-seq for INTS11 and RNAPII was performed before and after treatment of cells with ERK1/2 inhibitor (SCH772984). […] This was manifested by decreased occupancy of Integrator and RNAPII at the 5′-end and body of EGF-responsive genes (FIGS. 5A-5C). […]
ChIP-seq data analysis was performed as previously described. […] In brief, FASTQ data were processed with Trimmomatic to remove low-quality reads and then aligned to the human genome hg19 using bowtie2. […] In brief, RNAPII ChIP-seq density at the TSS (−30 bp to +300 bp) was divided by the read density over the rest of the gene body, plus an additional 1 kb beyond the transcription end site (TES). The log10(ratio) of genes (EGF, control and ERK inhibitor treatment) were calculated using all different isoforms available in the Hg19 RefSeq Annotation Table that were considered express (FPKM >1 in EGF treatment conditions) in our analysis.

[2] = system: IMR90 human fibroblasts and BEAS-2B normal lung epithelial cells; test: Cell viability of normal cells; type: cell-based; settings: IMR90 and BEAS-2B
Protocol: (§1) The cells were plated 5000 per well in 96-well black plates with a clear bottom and maintained under normal conditions over night before the drug treatment. The cell viability was measured 4 days after treatment using PrestoBlue (Invitrogen cat No A13261). GraphPad Prism software was used to generate dose response curves and calculate IC50 values. Each experiment was repeated at least three times.

[3] = system: ovarian cancer cell lines (A2780, OVCAR10, PEO1, PEO4); test: Viability assay (PrestoBlue), ovarian cancer cells; type: cell-based
Protocol: Cell viability was determined by Prestoblue and presented as percent of vehicle. Three independent biological replicates were used to calculate the average. Two-sided t-test, **P<0.01 for corresponding comparisons.
Therefore, ovarian cancer cells were used to assess the effectiveness of targeting Integrator in cancers without activating mutations in the MAPK pathway. Phendione was compared with the conventional chemotherapeutic drug, cisplatin, a DNA crosslinking agent, which is frequently used in the treatment of the ovarian cancer. The effectiveness of INTS11 depletion in reducing the proliferation of PEO4 ovarian cancer cells was first measured (FIGS. 11, 12A, and 12B). Next, four ovarian cancer cell lines were treated with phendione or cisplatin.
as §1

## O=C(Nc1ccc2[nH]nc(-c3ccncc3)c2c1)[C@@H]1CCN(CC(=O)N2CCN(c3ccc(-c4ncccn4)cc3)CC2)C1 [SCH772984]
[1]; before and after 20 minutes of EGF induction
  recruitment of Integrator and RNAPII to EGF-responsive IEGs: diminished the immediate-early recruitment of Integrator and RNAPII
[1]; following EGF induction
  transcriptional elongation (RNAPII traveling ratio): substantially decreased transcriptional elongation

## O=C1C(=O)c2cccnc2-c2ncccc21 [phendione, 1,10-phenanthroline-5,6-dione]
[2]
  sensitivity of normal cells (cell viability): sensitive to phendione
[3]; A2780 and OVCAR10, known resistance to cisplatin
  responsiveness of cisplatin-resistant ovarian cancer cells: sensitive to phendione
[3]; all four ovarian cancer lines, 96 hours treatment
  sensitivity of cellular viability: exquisite sensitivity
